{"source": "paper PMC7932537", "about": "“Quantitative profiling of protease specificity” (PLoS Computational Biology, 2021)", "key": {"MMP-9 [1]": {"target": "MMP-9 (Homo sapiens, UniProt P14780)", "sequence (P14780 94-707)": "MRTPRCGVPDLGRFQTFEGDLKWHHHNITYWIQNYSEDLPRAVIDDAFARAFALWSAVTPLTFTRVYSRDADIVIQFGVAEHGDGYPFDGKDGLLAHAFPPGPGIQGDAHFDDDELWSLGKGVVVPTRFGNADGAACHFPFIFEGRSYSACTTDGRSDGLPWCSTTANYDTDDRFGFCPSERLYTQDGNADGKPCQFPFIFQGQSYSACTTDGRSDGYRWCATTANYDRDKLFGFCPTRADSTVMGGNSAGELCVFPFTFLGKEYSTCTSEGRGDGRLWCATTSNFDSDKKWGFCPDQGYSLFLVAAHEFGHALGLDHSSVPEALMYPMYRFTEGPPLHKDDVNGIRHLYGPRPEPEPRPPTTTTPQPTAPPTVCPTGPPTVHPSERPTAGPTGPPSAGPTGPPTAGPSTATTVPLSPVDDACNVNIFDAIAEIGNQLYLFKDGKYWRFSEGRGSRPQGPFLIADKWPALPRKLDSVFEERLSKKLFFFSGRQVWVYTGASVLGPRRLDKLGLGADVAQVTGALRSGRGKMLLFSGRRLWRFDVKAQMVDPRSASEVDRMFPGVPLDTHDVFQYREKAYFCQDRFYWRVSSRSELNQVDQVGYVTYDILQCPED", "assay": "K(obs) of individual phage substrates (set of 1369)", "format": "biochemical", "conditions": "MMP9; individual phage substrate of the set of 1369 peptides; dash in sequence marks cleavage position"}, "MMP-2": {"target": "T1, MMP-2 (Homo sapiens, UniProt P08253)", "T1 sequence (P08253 110-660)": "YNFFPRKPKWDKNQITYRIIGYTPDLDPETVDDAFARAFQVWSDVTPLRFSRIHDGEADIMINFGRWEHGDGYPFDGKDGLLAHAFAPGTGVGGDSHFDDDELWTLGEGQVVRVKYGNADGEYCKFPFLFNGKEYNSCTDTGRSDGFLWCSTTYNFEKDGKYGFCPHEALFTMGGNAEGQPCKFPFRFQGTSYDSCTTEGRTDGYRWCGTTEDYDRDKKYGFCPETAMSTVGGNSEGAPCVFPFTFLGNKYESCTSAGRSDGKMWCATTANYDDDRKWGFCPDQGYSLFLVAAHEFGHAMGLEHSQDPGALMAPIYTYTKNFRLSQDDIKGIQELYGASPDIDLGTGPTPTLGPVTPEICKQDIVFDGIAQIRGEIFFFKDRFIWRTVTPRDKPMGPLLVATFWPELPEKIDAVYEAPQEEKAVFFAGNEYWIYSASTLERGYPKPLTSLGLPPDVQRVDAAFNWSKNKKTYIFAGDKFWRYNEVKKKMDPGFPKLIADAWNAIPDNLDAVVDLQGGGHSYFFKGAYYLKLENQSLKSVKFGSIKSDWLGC", "assay": "K(obs) of individual phage substrates (set of 1369)", "format": "biochemical", "conditions": "MMP2; individual phage substrate from the set of 1369 peptides; hyphen in the sequence marks the cleavage position"}, "MMP-9 [2]": {"test_system": "MMP-9", "assay": "Substrate phage display with NGS: relative probability (RP) of P3-P1' tetramer clusters;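 further: ratio of tetramer probability after protease selection to that in naive phage library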", "format": "biochemical, human", "conditions": "MMP9; RP of the substrate's P3-P1' tetramer, substrate phage display with NGS"}}}
{"substance": "SGPQW-MINTA", "values": [{"measurement": "Kobs", "setting": "MMP-9 [1]", "value": 4613.14, "unit": "M⁻¹ s⁻¹"}, {"measurement": "Kobs", "setting": "MMP-2", "value": 6131.32, "unit": "M⁻¹ s⁻¹"}, {"measurement": "relative probability (RP)", "setting": "MMP-9 [2]", "value": 45.9264}]}
{"substance": "GGIAA-MRTAS", "values": [{"measurement": "Kobs", "setting": "MMP-9 [1]", "value": 386.839, "unit": "M⁻¹ s⁻¹"}, {"measurement": "Kobs", "setting": "MMP-2", "value": 1071.29, "unit": "M⁻¹ s⁻¹"}, {"measurement": "relative probability (RP)", "setting": "MMP-9 [2]", "value": 10.5791}]}
{"substance": "YSTLR-TASGA", "values": [{"measurement": "Kobs", "setting": "MMP-9 [1]", "value": 1239.69, "unit": "M⁻¹ s⁻¹"}, {"measurement": "Kobs", "setting": "MMP-2", "value": 12792.1, "unit": "M⁻¹ s⁻¹"}, {"measurement": "relative probability (RP)", "setting": "MMP-9 [2]", "value": 0}]}
{"substance": "SGISA-LRKTA", "values": [{"measurement": "Kobs", "setting": "MMP-9 [1]", "value": 0, "unit": "M⁻¹ s⁻¹"}, {"measurement": "Kobs", "setting": "MMP-2", "value": 6688.74, "unit": "M⁻¹ s⁻¹"}, {"measurement": "relative probability (RP)", "setting": "MMP-9 [2]", "value": 16.3812}]}
{"substance": "YGPSL-LTASG", "values": [{"measurement": "Kobs", "setting": "MMP-9 [1]", "value": 12792.1, "unit": "M⁻¹ s⁻¹"}, {"measurement": "Kobs", "setting": "MMP-2", "value": 12792.1, "unit": "M⁻¹ s⁻¹"}, {"measurement": "relative probability (RP)", "setting": "MMP-9 [2]", "value": 32.4935}]}
{"substance": "TSPGL-LTASG", "values": [{"measurement": "Kobs", "setting": "MMP-9 [1]", "value": 690.17, "unit": "M⁻¹ s⁻¹"}, {"measurement": "Kobs", "setting": "MMP-2", "value": 12792.1, "unit": "M⁻¹ s⁻¹"}, {"measurement": "relative probability (RP)", "setting": "MMP-9 [2]", "value": 19.6268}]}
{"substance": "GTPRN-IKTAS", "values": [{"measurement": "Kobs", "setting": "MMP-9 [1]", "value": 12792.1, "unit": "M⁻¹ s⁻¹"}, {"measurement": "Kobs", "setting": "MMP-2", "value": 12792.1, "unit": "M⁻¹ s⁻¹"}, {"measurement": "relative probability (RP)", "setting": "MMP-9 [2]", "value": 46.5688}]}
{"substance": "GRPAG-VKTAS", "values": [{"measurement": "Kobs", "setting": "MMP-9 [1]", "value": 3079.62, "unit": "M⁻¹ s⁻¹"}, {"measurement": "Kobs", "setting": "MMP-2", "value": 12792.1, "unit": "M⁻¹ s⁻¹"}, {"measurement": "relative probability (RP)", "setting": "MMP-9 [2]", "value": 31.0803}]}
{"substance": "LAPRY-WTASG", "values": [{"measurement": "Kobs", "setting": "MMP-9 [1]", "value": 12792.1, "unit": "M⁻¹ s⁻¹"}, {"measurement": "Kobs", "setting": "MMP-2", "value": 12792.1, "unit": "M⁻¹ s⁻¹"}, {"measurement": "relative probability (RP)", "setting": "MMP-9 [2]", "value": 27.5973}]}
{"substance": "SGVAG-LYSTA", "values": [{"measurement": "Kobs", "setting": "MMP-9 [1]", "value": 7015.91, "unit": "M⁻¹ s⁻¹"}, {"measurement": "Kobs", "setting": "MMP-2", "value": 12792.1, "unit": "M⁻¹ s⁻¹"}, {"measurement": "relative probability (RP)", "setting": "MMP-9 [2]", "value": 21.512}]}
{"substance": "RHPSH-FTASG", "values": [{"measurement": "Kobs", "setting": "MMP-9 [1]", "value": 6688.74, "unit": "M⁻¹ s⁻¹"}, {"measurement": "Kobs", "setting": "MMP-2", "value": 12792.1, "unit": "M⁻¹ s⁻¹"}, {"measurement": "relative probability (RP)", "setting": "MMP-9 [2]", "value": 26.7767}]}
{"substance": "GRATA-LYTAS", "values": [{"measurement": "Kobs", "setting": "MMP-9 [1]", "value": 1283.43, "unit": "M⁻¹ s⁻¹"}, {"measurement": "Kobs", "setting": "MMP-2", "value": 4082.43, "unit": "M⁻¹ s⁻¹"}, {"measurement": "relative probability (RP)", "setting": "MMP-9 [2]", "value": 15.5991}]}
{"substance": "RMWRA-FTASG", "values": [{"measurement": "Kobs", "setting": "MMP-9 [1]", "value": 4922.1, "unit": "M⁻¹ s⁻¹"}, {"measurement": "Kobs", "setting": "MMP-2", "value": 4205.91, "unit": "M⁻¹ s⁻¹"}, {"measurement": "relative probability (RP)", "setting": "MMP-9 [2]", "value": 17.7749}]}
{"substance": "QVPRR-LTASG", "values": [{"measurement": "Kobs", "setting": "MMP-9 [1]", "value": 10866.7, "unit": "M⁻¹ s⁻¹"}, {"measurement": "Kobs", "setting": "MMP-2", "value": 12792.1, "unit": "M⁻¹ s⁻¹"}, {"measurement": "relative probability (RP)", "setting": "MMP-9 [2]", "value": 2.666}]}
{"substance": "RQPRN-VTASG", "values": [{"measurement": "Kobs", "setting": "MMP-9 [1]", "value": 12792.1, "unit": "M⁻¹ s⁻¹"}, {"measurement": "Kobs", "setting": "MMP-2", "value": 6131.32, "unit": "M⁻¹ s⁻¹"}, {"measurement": "relative probability (RP)", "setting": "MMP-9 [2]", "value": 40.3866}]}
{"substance": "SGVKG-MYSTA", "values": [{"measurement": "Kobs", "setting": "MMP-9 [1]", "value": 7815.03, "unit": "M⁻¹ s⁻¹"}, {"measurement": "Kobs", "setting": "MMP-2", "value": 4335.13, "unit": "M⁻¹ s⁻¹"}, {"measurement": "relative probability (RP)", "setting": "MMP-9 [2]", "value": 17.5008}]}
{"substance": "SGWRA-YTGTA", "values": [{"measurement": "Kobs", "setting": "MMP-9 [1]", "value": 9740.44, "unit": "M⁻¹ s⁻¹"}, {"measurement": "Kobs", "setting": "MMP-2", "value": 2476.66, "unit": "M⁻¹ s⁻¹"}, {"measurement": "relative probability (RP)", "setting": "MMP-9 [2]", "value": 29.3104}]}
{"substance": "SGVRS-ITWTA", "values": [{"measurement": "Kobs", "setting": "MMP-9 [1]", "value": 3637.04, "unit": "M⁻¹ s⁻¹"}, {"measurement": "Kobs", "setting": "MMP-2", "value": 261.974, "unit": "M⁻¹ s⁻¹"}, {"measurement": "relative probability (RP)", "setting": "MMP-9 [2]", "value": 25.6748}]}
{"substance": "RVPVP-MTASG", "values": [{"measurement": "Kobs", "setting": "MMP-9 [1]", "value": 9740.44, "unit": "M⁻¹ s⁻¹"}, {"measurement": "Kobs", "setting": "MMP-2", "value": 2038.8, "unit": "M⁻¹ s⁻¹"}, {"measurement": "relative probability (RP)", "setting": "MMP-9 [2]", "value": 46.3561}]}
{"substance": "SGPRT-LVVTA", "values": [{"measurement": "Kobs", "setting": "MMP-9 [1]", "value": 12792.1, "unit": "M⁻¹ s⁻¹"}, {"measurement": "Kobs", "setting": "MMP-2", "value": 12792.1, "unit": "M⁻¹ s⁻¹"}, {"measurement": "relative probability (RP)", "setting": "MMP-9 [2]", "value": 42.2705}]}
{"substance": "LPPLG-FTASG", "values": [{"measurement": "Kobs", "setting": "MMP-9 [1]", "value": 10866.7, "unit": "M⁻¹ s⁻¹"}, {"measurement": "Kobs", "setting": "MMP-2", "value": 12792.1, "unit": "M⁻¹ s⁻¹"}, {"measurement": "relative probability (RP)", "setting": "MMP-9 [2]", "value": 44.5202}]}
{"substance": "PTPRS-YTASG", "values": [{"measurement": "Kobs", "setting": "MMP-9 [1]", "value": 12792.1, "unit": "M⁻¹ s⁻¹"}, {"measurement": "Kobs", "setting": "MMP-2", "value": 7386.83, "unit": "M⁻¹ s⁻¹"}, {"measurement": "relative probability (RP)", "setting": "MMP-9 [2]", "value": 44.546}]}
{"substance": "IFPAN-HTASG", "values": [{"measurement": "Kobs", "setting": "MMP-9 [1]", "value": 5090.5, "unit": "M⁻¹ s⁻¹"}, {"measurement": "Kobs", "setting": "MMP-2", "value": 12792.1, "unit": "M⁻¹ s⁻¹"}, {"measurement": "relative probability (RP)", "setting": "MMP-9 [2]", "value": 10.2001}]}
{"substance": "RAPLP-VTASG", "values": [{"measurement": "Kobs", "setting": "MMP-9 [1]", "value": 12792.1, "unit": "M⁻¹ s⁻¹"}, {"measurement": "Kobs", "setting": "MMP-2", "value": 12792.1, "unit": "M⁻¹ s⁻¹"}, {"measurement": "relative probability (RP)", "setting": "MMP-9 [2]", "value": 40.8342}]}
{"substance": "SGPKL-LYGTA", "values": [{"measurement": "Kobs", "setting": "MMP-9 [1]", "value": 12792.1, "unit": "M⁻¹ s⁻¹"}, {"measurement": "Kobs", "setting": "MMP-2", "value": 4205.91, "unit": "M⁻¹ s⁻¹"}, {"measurement": "relative probability (RP)", "setting": "MMP-9 [2]", "value": 35.7561}]}
